Where “and” joins values, the source holds several entries; their conditions need not be identical. Equal values may be shown once. Toxic doses and inconclusive results are not listed.

18 compounds from PubChem BioAssay AID330 (DTP/NCI, 2004) can be followed below.

The assay deals with P388 leukemia ip, CD2F1 mice, survival T/C. Put plainly: NCI In Vivo Anticancer Drug Screen. Data for tumor model P388 Leukemia (intraperitoneal) in CD2F1 (CDF1) mice. Conditions: endpoint: median survival time, higher = longer survival. The method in brief:
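Mice carrying the transplanted tumor received test compound or vehicle. Survival was recorded in each group, and the value is the treated-group measurement divided by that of the vehicle-treated control group.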

[1] abbreviates: dose: 6.25 mg/kg/injection, schedule: Q01DX009 (ip), vehicle: saline with Tween-80.
[2] abbreviates: dose: 60.0 mg/kg/injection, schedule: Q01DX005 (ip), vehicle: saline with Tween-80.
The mark [3] stands for this setting: dose: 120.0 mg/kg/injection, schedule: Q01DX005 (ip), vehicle: saline with Tween-80.
Setting [4] is: dose: 240.0 mg/kg/injection, schedule: Q01DX005 (ip), vehicle: saline with Tween-80.
Setting [5] is: dose: 50.0 mg/kg/injection, schedule: Q04DX003 (ip), vehicle: saline with Tween-80.
The mark [6] stands for this setting: dose: 100.0 mg/kg/injection, schedule: Q04DX003 (ip), vehicle: saline with Tween-80.
Where [7] appears, read: dose: 400.0 mg/kg/injection, schedule: Q04DX003 (ip), vehicle: saline with Tween-80.

Take `CCCC(=O)NC1=C(N2CC2)C(=O)C(NC(=O)CCC)=C(N2CC2)C1=O`: the T/C is 120 % of control (dose: 0.13 mg/kg/injection, schedule: Q01DX009 (ip), vehicle: saline with Tween-80); 118 % of control (dose: 0.2 mg/kg/injection, schedule: Q01DX009 (ip), vehicle: saline with Tween-80); 112 % of control (dose: 0.44 mg/kg/injection, schedule: Q01DX009 (ip), vehicle: saline with Tween-80); 157 % of control (dose: 1.0 mg/kg/injection, schedule: Q01DX009 (ip), vehicle: saline with Tween-80); 181 % of control (dose: 1.56 mg/kg/injection, schedule: Q01DX009 (ip), vehicle: saline with Tween-80); 159 % of control (dose: 2.5 mg/kg/injection, schedule: Q04DX003 (ip), vehicle: saline with Tween-80). For the same compound, the T/C was 154 % of control (dose: 3.13 mg/kg/injection, schedule: Q04DX003 (ip), vehicle: saline with Tween-80); 200 % of control (dose: 5.0 mg/kg/injection, schedule: Q04DX003 (ip), vehicle: saline with Tween-80); 86 % of control under setting [1]; 227 % of control (dose: 6.25 mg/kg/injection, schedule: Q04DX003 (ip), vehicle: saline with Tween-80); 104 % of control (dose: 12.5 mg/kg/injection, schedule: Q04DX003 (ip), vehicle: saline with Tween-80).

Regarding `Cc1onc(-c2c(F)cccc2Cl)c1-c1ncc(-c2ccc(Br)cc2)o1`, the T/C is, setting by setting: under setting [2], 100 % of control; under setting [3], 104 % of control; under setting [4], 101 % of control.

As to `COc1cccc2c1C(=O)c1c(O)c3c(c(O)c1C2=O)C[C@@](O)(C(C)=O)C[C@@H]3OC1CC(NC(C)C)C(O)C(C)O1` (some centres not stated), the T/C is, setting by setting: (dose: 0.2 mg/kg/injection, schedule: Q01DX009 (ip), vehicle: water) 97 % of control; (dose: 0.39 mg/kg/injection, schedule: Q01DX009 (ip), vehicle: water) 103 % of control; (dose: 0.78 mg/kg/injection, schedule: Q01DX009 (ip), vehicle: water) 115 % of control; (dose: 4.7 mg/kg/injection, schedule: Q04DX003 (ip), vehicle: water) 109 % of control; (dose: 6.25 mg/kg/injection, schedule: Q01DX009 (ip), vehicle: water) 157 % of control and 174 % of control; (dose: 9.4 mg/kg/injection, schedule: Q04DX003 (ip), vehicle: water) 107 % of control and 113 % of control. In addition, the T/C (dose: 12.5 mg/kg/injection, schedule: Q01DX009 (ip), vehicle: water) was 199 % of control; the T/C (dose: 18.8 mg/kg/injection, schedule: Q04DX003 (ip), vehicle: water) is 120 % of control; the T/C (dose: 150.0 mg/kg/injection, schedule: Q04DX003 (ip), vehicle: water) is 106 % of control and 91 % of control.

Turning to `O=C(/C=C/c1ccccc1)c1ccc(O)cc1`, the T/C is 103 % of control under setting [1]; 109 % of control (dose: 12.5 mg/kg/injection, schedule: Q01DX009 (ip), vehicle: saline with Tween-80); 110 % of control (dose: 25.0 mg/kg/injection, schedule: Q01DX009 (ip), vehicle: saline with Tween-80); 98 % of control under setting [5]; 98 % of control under setting [6]; 114 % of control under setting [7].

Take `COc1ccc([N+](=O)[O-])c2ccc(C(=O)O)nc12`: the T/C by setting is: (dose: 50.0 mg/kg/injection, schedule: Q01DX005 (ip), vehicle: saline) 103 % of control; (dose: 100.0 mg/kg/injection, schedule: Q01DX005 (ip), vehicle: saline) 97 % of control; (dose: 200.0 mg/kg/injection, schedule: Q01DX005 (ip), vehicle: saline) 110 % of control.

For the compound `O=C(O)CN(CCN(CC(=O)O)CC(=O)O)CC(=O)O`, the T/C (dose: 100.0 mg/kg/injection, schedule: Q04DX003 (ip), vehicle: saline) is 100 % of control.

As for `CCOC(=O)C/C(C)=C1/N=C(c2ccccc2)OC1=O`, the T/C runs as follows: under setting [2], 91 % of control; under setting [3], 91 % of control; under setting [4], 92 % of control.

For the compound `O=C(O)CCO/N=C1/Oc2ccc(Cl)cc2C1=O`, the T/C was 103 % of control under setting [2], 102 % of control under setting [3] and 101 % of control under setting [4].

As for `O=c1c2ccccc2nc2n1CCC/C2=C\c1ccc2c(c1)OCO2`, the T/C (dose: 91.75 mg/kg/injection, schedule: Q04DX002 (ip), vehicle: Klucel (hydroxypropylcellulose) (HPC)) is 100 % of control; the T/C (dose: 183.5 mg/kg/injection, schedule: Q04DX002 (ip), vehicle: Klucel (hydroxypropylcellulose) (HPC)) is 103 % of control; the T/C (dose: 367.0 mg/kg/injection, schedule: Q04DX002 (ip), vehicle: Klucel (hydroxypropylcellulose) (HPC)) was 102 % of control.

With `COCC#CC(C)(C)OC`, the T/C is 95 % of control (dose: 60.0 mg/kg/injection, schedule: Q01DX005 (ip), vehicle: saline); 95 % of control (dose: 120.0 mg/kg/injection, schedule: Q01DX005 (ip), vehicle: saline); 99 % of control (dose: 240.0 mg/kg/injection, schedule: Q01DX005 (ip), vehicle: saline).

Regarding `N#CC(Cc1ccccc1Cl)C(=O)O` (configuration not stated), the T/C was 99 % of control (dose: 12.5 mg/kg/injection, schedule: Q01DX009 (none), vehicle: saline); 92 % of control (dose: 25.0 mg/kg/injection, schedule: Q01DX009 (none), vehicle: saline); 90 % of control (dose: 50.0 mg/kg/injection, schedule: Q01DX009 (none), vehicle: saline); 90 % of control (dose: 100.0 mg/kg/injection, schedule: Q01DX009 (none), vehicle: saline).

Consider `Cc1ccc(-c2cc(C(=O)NN)c(C#N)c(=O)[nH]2)cc1`, for which the T/C by setting is: (dose: 60.0 mg/kg/injection, schedule: Q01DX005 (ip), vehicle: suspension in saline) 97 % of control; (dose: 120.0 mg/kg/injection, schedule: Q01DX005 (ip), vehicle: suspension in saline) 100 % of control; (dose: 240.0 mg/kg/injection, schedule: Q01DX005 (ip), vehicle: suspension in saline) 100 % of control.

On to `O=C(Nc1ccccc1-c1ccccc1)c1cccc2ccccc12`, for which the T/C was 106 % of control (dose: 50.0 mg/kg/injection, schedule: Q01DX005 (ip), vehicle: saline with Tween-80); 94 % of control (dose: 100.0 mg/kg/injection, schedule: Q01DX005 (ip), vehicle: saline with Tween-80); 90 % of control (dose: 200.0 mg/kg/injection, schedule: Q01DX005 (ip), vehicle: saline with Tween-80).

As to `Nc1nc2c(nnn2C2OC(COP(=O)(O)OP(=O)(O)O)C(O)C2O)c(=O)[nH]1` (configuration not stated), the T/C reads like this: (dose: 12.5 mg/kg/injection, schedule: Q01DX001 (ip), vehicle: saline) 110 % of control; (dose: 25.0 mg/kg/injection, schedule: Q01DX001 (ip), vehicle: saline) 110 % of control; (dose: 50.0 mg/kg/injection, schedule: Q01DX001 (ip), vehicle: saline) 116 % of control; (dose: 100.0 mg/kg/injection, schedule: Q01DX001 (ip), vehicle: saline) 117 % of control.

Turning to `CC(=O)Nc1ccc(S(=O)(=O)Nc2ccc(O)c3ccccc23)cc1`, the T/C is 88 % of control under setting [5]; 90 % of control under setting [6]; 100 % of control (dose: 200.0 mg/kg/injection, schedule: Q04DX003 (ip), vehicle: saline with Tween-80); 117 % of control under setting [7].

In the case of `CN=C(c1ccc(NC(=O)c2ccc(C(=O)Nc3ccc(C(=NC)N(C)C)cc3)c(Cl)c2)cc1)N(C)C`, the T/C runs as follows: (dose: 0.75 mg/kg/injection, schedule: Q01DX005 (ip), vehicle: saline) 95 % of control; (dose: 1.5 mg/kg/injection, schedule: Q01DX005 (ip), vehicle: saline) 96 % of control; (dose: 3.0 mg/kg/injection, schedule: Q01DX005 (ip), vehicle: saline) 92 % of control; (dose: 3.12 mg/kg/injection, schedule: Q01DX005 (ip), vehicle: saline) 100 % of control.

Regarding `CC(=O)OCc1c(-c2ccccc2)nc2sccn12`, the T/C reads like this: (dose: 100.0 mg/kg/injection, schedule: Q01DX001 (ip), vehicle: Klucel (hydroxypropylcellulose) (HPC)) 98 % of control; (dose: 200.0 mg/kg/injection, schedule: Q01DX001 (ip), vehicle: Klucel (hydroxypropylcellulose) (HPC)) 100 % of control.

Take `CCCCCCC(=O)/C=C/c1ccc(OC(=O)c2ccccc2)cc1`: the T/C runs as follows: (dose: 50.0 mg/kg/injection, schedule: Q01DX009 (ip), vehicle: saline) 97 % of control; (dose: 100.0 mg/kg/injection, schedule: Q01DX009 (ip), vehicle: saline) 97 % of control; (dose: 200.0 mg/kg/injection, schedule: Q01DX009 (ip), vehicle: saline) 110 % of control.
